Test results: PMC9355956 (Communications Biology, 2022)
Values joined by “and” are separate entries in the source; they are usually repeats but may differ in a detail not shown here. Equal values may be shown once. “Also recorded” adds a separate entry of the source. Where a name gives a salt, the structure may show the parent alone. Read-outs that look alike come from different tables or passages of the source. Values belong to the compound of their own block, whether it stands above or below them.

Assays:
hSMOX [1] = molecular target: T1, hSMOX (Homo sapiens, UniProt Q9NWM0); test: hSMOX HyPerBlu chemiluminescent enzyme activity assay (H2O2 detection, Spm substrate); format: biochemical; conditions: for time-dependent inhibition of hSMOX: ± 2 h preincubation with enzyme
T1 construct: 6xHis (N); TEV cleavage site (N); made in house; host or cells: E. coli BL21(D3), plasmid PET28b(+)
From the text: Based on this assay, we carried out a high-throughput screening campaign searching for inhibitors of hSMOX against a diverse compound collection.

hSMOX in A549 cells = molecular target: T2, hSMOX in A549 cells (Homo sapiens, UniProt Q9NWM0); test: CETSA in A549 cells with hSMOX AlphaLISA detection; format: cell-based; conditions: A549 intact cells, 54 °C, vs vehicle
T2 construct: human lung carcinoma cells (A549) which endogenously produce high levels of hSMOX; endogenous in cells; host or cells: A549 human lung carcinoma cells
From the text: To determine whether JNJ-1289 would be able to target hSMOX in a cellular environment, we developed a Cellular Thermal Shift Assay (CETSA®)[52] using human lung carcinoma cells (A549) which endogenously produce high levels of hSMOX[53]. CETSA evaluates the binding of low molecular weight compounds to target proteins directly in intact cells by taking advantage of the increased resistance to thermal denaturation that ligand binding can confer on proteins. Detection of the relative amounts of remaining soluble protein using AlphaLISA after incubation of A549 cells at the optimal melting temperature of hSMOX for CETSA (54 °C) was performed in the presence or absence of hSMOX ligands.
A549 (adenocarcinoma human alveolar basal epithelial cells) express relatively high levels of hSMOX. Their use has been widely reported in the literature for the investigation of the polyamine catabolic pathway. In our case, using hSMOX high-expressing cells with CETSA and AlphaLISA systems provided the optimal platform for screening promising small molecules for hSMOX inhibition.
T175 culture flasks with 80–90% confluent cells were used for harvesting after washing two times with PBS followed by the addition of 2 mL TrypLE^TMselect (Gibco) per flask and incubation for 5 min at 37 °C. After dissociation, cells were resuspended in 1 mL culture medium (DMEM (Gibco) with 10% fetal calf serum) and 7 mL PBS. Cells from multiple flasks were pooled, spun down for 5 min at 300 × g, and resuspended to 20 million cells/mL in PBS.
Compounds were dissolved in DMSO to 1 mM stocks. Compound stocks and DMSO controls were added to vials containing 1 mL cell suspension to an end concentration of 10 µM compound and 1% DMSO. Vials were incubated at 37 °C for 1 h while shaking at 125 rpm. Subsequently, vials were cooled on ice and cells were distributed to PCR vials at 20 µL per vial. Transient heating of the cells was performed using a PCR Thermocycler. Vials were heated up to 54 °C for 1 min and then immediately cooled on ice. For temperature range experiments the heating step was repeated increasing the temperature with each next vial with 1 °C. After the cooling step cells were lysed by adding 80 µL 1x AlphaLISA-buffer (Perkin Elmer).
The hSMOX specific AlphaLISA was developed using internally monoclonal rabbit antibody mAb#2 and F(ab’)2 fragment Fab#33 against hSMOX containing a C-terminal His-tag. Both mAb#2 and Fab#33 are specific for hSMOX and selected for their ability to detect hSMOX without interfering with its catalytic activity. Care was taken to confirm that both mAb#2 and Fab#33 bind to distinct (conformational) epitopes. […] After 1 h Alpha signal was read using an Alpha compatible reader. […]

murine SMOX enzyme = conditions: value reported for the murine SMOX enzyme; cited from earlier work
hPAOX = hPAOX (Homo sapiens, UniProt Q6QHF9); test: hPAOX HyPerBlu enzyme activity assay (N-AcSpm substrate)
Experimental: The activity of hSMOX, hPAOX, and LSD1 enzymes was measured using the HyPerBlu chemiluminescent reagent for the direct detection of the hydrogen peroxide product. […] Hydrogen peroxide product formation was monitored 30 min after the addition of HyPerBlu on a PHERAstar microplate reader (BMG LABTECH, Cary, NC). All compounds were spotted into the assay plates using Echo acoustic dispensing technology (BeckmanCoulter, Indianapolis, IN). Unless otherwise stated, all reactions were carried out in 384-well assay format.
2 µL/well of 2x substrate was dispensed into the assay plate followed by 2 µL/well of 2x enzyme to initiate the reactions. […] The data were fit to the 4-parameter IC50 equation in GraphPad Prism.
50 nL/well of the twofold inhibitor titrations in 100% DMSO were dispensed into the assay plate followed by the addition of 2.5 µL of 2x hSMOX or 2x hPAOX. A 2 h or 4 h E·I preincubation was carried out at a final concentration of 2 nM or 3 nM hSMOX or 60 pM hPAOX. […] For the 0 h preincubation control, the addition of the substrate solution was made prior to the enzyme solution. […] The data were fit to the 4-parameter IC50 equation in GraphPad Prism.
Briefly, 2.5 µL/well of the twofold substrate solutions prepared in buffer was added to the assay wells followed by 2.5 µL/well of the 2x enzyme to initiate the reactions.
The initial velocity data were fit to the Michaelis-Menten equation in GraphPad Prism. Y=Vmax*X/(Km+X) where Vmax is the maximal velocity, X is the substrate concentration and Km is the Michaelis-Menten constant. The kcat value was determined by dividing Vmax value by the enzyme concentration.

hSMOX [2] = molecular target: T1, hSMOX; test: nanoDSF thermal denaturation of purified SMOX; format: binding; conditions: 10 μM SMOX, 100 μM compound
Experimental: All nanoDSF experiments were performed on a nanoTEMPER Prometheus NT.48 instrument. 10 μM purified SMOX was incubated with 100 μM compound of interest for 10 min and loaded onto the instrument. Thermal denaturation (25–90 °C) was conducted at 1.0 °C/min and 45% intensity. Tm was calculated using PR.ThermControl software as the inflection point of the first derivative of Trp fluorescence during the temperature gradient measured at 350/330 nm. All experiments were performed in triplicate.

LSD1 = LSD1 (Homo sapiens, UniProt O60341); test: LSD1 HyPerBlu enzyme activity assay (H3K4me2 peptide substrate)
hSMOX [3] = molecular target: T1, hSMOX; test: Thermal shift assay (ThermoFluor, ANS dye) of purified hSMOX; format: binding; conditions: compared to DMSO control
Experimental: The fluorescent dye ANS (Molecular Probes) was used to monitor the thermal denaturation of hSMOX. Assay buffer consisting of 10 mM HEPES pH 7.5, 150 mM NaCl, 0.005% P20 was used for all dilutions. The assay was performed in 384-well Hard Shell thin-wall PCR plates (Bio-Rad). 120 nL of ligand was dispensed into the 384-well plate using acoustic dispensing technology followed by the addition of 4 µL of 0.2 mg/ml of hSMOX with 60 µM ANS dye. Replicates of 4% DMSO protein control were set up in each plate. Wells were covered with 1 µL silicone oil. Plates were centrifuged at 1000 rpm for 2 min. The Tm’s were measured using a ThermoFluor instrument. The plates were heated from 30 to 80 °C at a rate of 1 °C per minute. The ΔTm is calculated as the difference between the Tm of each well and that of the average 4% DMSO protein control.

hSMOX [4] = molecular target: T1, hSMOX; test: Progress curve analysis of hSMOX inhibition (on rate, mode of inhibition); format: biochemical
Experimental: Reactions were initiated with 3 µL/well of 2x hSMOX and quenched at several time points up to 1 h with 3 µL/well of 25 µM final chlorhexidine. […] Thereafter, 9 µL/well of HyPerBlu reagent was added.
Time point data up to 1 h of reaction time was captured by dispensing 3 µL/well of 25 µM final chlorhexidine to quench the reactions followed by the addition of 9 µL/well HyPerBlu reagent.
Supplementary Fig. 11. Kinetics of JNJ-1289. a, Reaction progress curve analysis of 2 nM […]
Progress curves were monitored for 1h and fit to Eqn S1 at each JNJ-1289 concentration to determine the observed rate constant, kobs.
[P] = Y0 + υ t + υi−υs (1 − e−kobst) (S1) […]
where υi and υs are the initial and steady state velocities, respectively, t is time and kobs represents the observed rate constant. b, Replot of kobs vs. [JNJ-1289] was hyperbolic, which indicated a two-step binding mechanism […]
where I is the inhibitor concentration, k5 and k6 are the estimated forward and reverse rate constants, respectively, and Kiapp is the apparent value of the initial E·I complex. […]
concentrations (7.8 – 1000 µM). Progress curves were monitored for 1h and fit to Eqn S3 at […]
(1 picture or pasted object on this page, not shown here)

[5] = 2.5 nM hSMOX, 30 µM Spm, 1 h reaction, HTS assay conditions, read-out: IC50 hSMOX

Chain of hPAOX (Q6QHF9 whole entry): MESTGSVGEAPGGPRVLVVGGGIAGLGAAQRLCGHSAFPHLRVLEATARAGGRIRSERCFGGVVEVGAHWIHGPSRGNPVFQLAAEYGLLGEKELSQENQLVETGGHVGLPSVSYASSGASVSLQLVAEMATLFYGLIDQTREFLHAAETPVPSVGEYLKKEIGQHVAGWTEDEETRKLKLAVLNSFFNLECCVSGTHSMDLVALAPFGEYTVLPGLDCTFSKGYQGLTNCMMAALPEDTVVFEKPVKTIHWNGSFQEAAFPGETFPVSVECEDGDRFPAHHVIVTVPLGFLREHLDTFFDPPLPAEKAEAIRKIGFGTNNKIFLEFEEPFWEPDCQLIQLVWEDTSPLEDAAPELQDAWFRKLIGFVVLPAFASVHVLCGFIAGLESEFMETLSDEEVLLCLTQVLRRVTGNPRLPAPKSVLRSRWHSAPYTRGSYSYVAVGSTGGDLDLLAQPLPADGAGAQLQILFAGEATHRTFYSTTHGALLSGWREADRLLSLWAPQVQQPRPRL
T1 sequence (Q9NWM0 whole entry): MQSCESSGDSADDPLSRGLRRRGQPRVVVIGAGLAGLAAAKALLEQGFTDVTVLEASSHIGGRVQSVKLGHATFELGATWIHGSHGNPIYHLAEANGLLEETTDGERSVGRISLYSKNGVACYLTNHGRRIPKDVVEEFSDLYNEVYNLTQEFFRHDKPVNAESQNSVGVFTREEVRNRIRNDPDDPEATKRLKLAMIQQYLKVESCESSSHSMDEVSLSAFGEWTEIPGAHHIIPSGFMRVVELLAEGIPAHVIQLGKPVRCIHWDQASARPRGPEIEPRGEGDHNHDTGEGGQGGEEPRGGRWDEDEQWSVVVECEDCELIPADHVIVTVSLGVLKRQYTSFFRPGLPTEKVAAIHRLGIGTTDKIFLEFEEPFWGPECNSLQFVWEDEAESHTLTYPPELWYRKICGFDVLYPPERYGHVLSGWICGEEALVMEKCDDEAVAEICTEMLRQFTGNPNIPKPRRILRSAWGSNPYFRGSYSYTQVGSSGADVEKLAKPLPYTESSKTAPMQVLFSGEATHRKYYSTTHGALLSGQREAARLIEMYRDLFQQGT
T2 sequence (Q9NWM0 whole entry): as above

SMILES: [H]/N=C(\N/C(=N/[H])NCCCCCCNC(=N)NC(=N)Nc1ccc(Cl)cc1)Nc1ccc(Cl)cc1 [chlorhexidine, reference compound]
inhibition of hSMOX (in words) (hSMOX [1]): robust inhibition | IC50 (hSMOX [1]; [5]): 1900 nM | inhibition of hSMOX (in words) (hSMOX [1]; listed as Chlorhexidine): inhibited | time-dependent inhibition of hSMOX (hSMOX [1]): not observed | time-dependent inhibition of hSMOX (hSMOX [1]; listed as Chlorhexidine): did not display time-dependent inhibition | cellular hSMOX engagement (AlphaLISA signal after heating) (hSMOX in A549 cells): absence of cellular hSMOX engagement | Ki (murine SMOX enzyme): 3800 ± 200 nM

SMILES: CC(=O)NCCCNCCCCNCCCN [N-AcSpm, N^1-acetylspermine trihydrochloride]
Km (hPAOX; read-out: Km for hPAOX, substrate, 0.076 nM hPAOX): 20.1 ± 0.63 µM | kcat hPAOX (hPAOX; substrate, 0.076 nM hPAOX): 57 s⁻¹

SMILES: Oc1ccc(Nc2nc(-c3cnc4ccccn34)cs2)cc1 [JNJ-1289, 4-((4-imidazo[1,2,α]pyridine-3-ylthiazol-2-yl)amino)phenol]
IC50 (hSMOX [1]; [5]): 50 nM | IC50 (hSMOX [1]; 2 h preincubation, 30 µM Spm, read-out: IC50 hSMOX, 2 h (120 min) enzyme-inhibitor preincubation): 5.5 nM and 8 nM | IC50 hSMOX, 4 h (240 min) enzyme-inhibitor preincubation (hSMOX [1]; 4 h preincubation, 30 µM Spm): within twofold of the results observed using a 120 min pre-incubation | IC50 (hSMOX [1]; IC50 hSMOX, 4 h (240 min) enzyme-inhibitor preincubation, 4 h preincubation, 30 µM Spm): 3.2 nM | IC50 (hSMOX [1]; no preincubation, 30 µM Spm, read-out: IC50 hSMOX, 0 h enzyme-inhibitor preincubation): 143 nM and 127 nM | time-dependent inhibition of hSMOX (hSMOX [1]): selective and time-dependent inhibition; also recorded: time-dependent hSMOX inhibitor | IC50 (LSD1): > 2000 nM | ΔTm of hSMOX (thermal shift) (hSMOX [3]): 11.3 °C | mode of inhibition with respect to Spm (hSMOX [4]; 312 nM inhibitor, varying Spm, 2 nM hSMOX): competitive hSMOX inhibitor | t1/2 dissociation (hSMOX [4]; from 0.693/koff): 7.7 h | Ki (hSMOX [4]; read-out: apparent Ki (Ki app) of the initial E·I complex): 1400 nM | kon (hSMOX [4]; read-out: apparent second-order on-rate constant (kon)): 2500 M⁻¹ s⁻¹ | koff (hSMOX [4]; read-out: calculated first-order dissociation rate constant (koff)): 2.5e-05 s⁻¹ | cellular hSMOX engagement (AlphaLISA signal after heating) (hSMOX in A549 cells): absence of cellular hSMOX engagement; also recorded: apparent lack of target engagement | thermal stability of hSMOX (nanoDSF) (hSMOX [2]): increase the thermal stability of the protein | IC50 (hPAOX): > 2000 nM | time-dependent inhibition of hPAOX (hPAOX; ± 2 h preincubation with enzyme): do not observe time-dependent inhibition

SMILES: CCNCCCNCCCNCCCNCC [Benspm]
cellular hSMOX engagement (AlphaLISA signal after heating) (hSMOX in A549 cells): absence of cellular hSMOX engagement

Continued, in another order:

cellular hSMOX engagement (AlphaLISA signal after heating) (hSMOX in A549 cells): robust cellular hSMOX engagement
SMILES: C=C=CCNCCCCNCC=C=C [MDL72527, reference compound]
thermal stability of hSMOX (nanoDSF) (hSMOX [2]): increase the thermal stability of the protein

kcat hSMOX (hSMOX [1]; substrate, 2.5 nM hSMOX): 4 s⁻¹
SMILES: NCCCNCCCCNCCCN [Spm, spermine]
